Reference: paper PMC11141866, “Pyrimidine depletion enhances targeted and immune therapy combinations in acute myeloid leukemia” (JCI Insight, 2024)
Values joined by “and” are separate entries in the source; they are usually repeats but may differ in a detail not shown here. Identical values can stand only once. Like-named read-outs stand apart in the source and are kept apart here.

Legend:
CYP 1A2 = CYP 1A2 (Homo sapiens, UniProt P05177); test: CYP inhibition 1A2; format: in vitro ADME
Text: Supplement jciinsight-9-173646-s083.xlsx, sheet "Supplemental Table S.2." | column: HOSU-53

[1] = molecular target: T1, human DHODH (hDHODH, amino acid residues 31-395) (Homo sapiens, UniProt Q02127); test: Cell-free human DHODH enzyme inhibition assay; format: biochemical
T1 construct: purchased Reaction Biology (assay run there as a service)
Experimental: Details are described in the Supplemental Methods. […]
Enzyme inhibition of human DHODH […]
performed at Reaction Biology (Malvern, PA, USA). Briefly, a two-step fluorescence-based assay was used to test compounds in duplicates using a 10-dose IC50 mode with 3-fold serial dilution starting at 1 µM or 10 µM. The enzymatic step for hDHODH (used at […]
to orotate and followed by resazurin (used at 60 or 80 µM per reaction) catalyzed to […]
resorufin. […]

[2] = Single-dose HOSU-53 PK in mice; format: in vivo, male C57BL/6 mice
Experimental: In the i.v. cohort, serial blood samples were collected in tubes containing K2EDTA at 0.083, 0.25, 0.5, 1, 2, 6, 24, 48, and 72 hours postdose while in the oral gavage cohort, serial blood samples were collected at 0.25, 0.5, 1, 2, 4, 8, 24, 48, and 72 hours postdose. Blood samples were processed to plasma to analyze for HOSU-53 and L-dihydroorotic acid (DHO) concentrations using liquid chromatography-tandem mass spectrometry. page 6: Plasma samples were obtained following appropriate dosing administration and saved in the -80°C freezer till the time of analysis. Analyses by LC-MS/MS followed sample extraction by protein precipitation and separation by Ultra Performance Liquid Chromatography (UPLC, Waters Corporation, MA, USA) using a C18 column, 1.7um, 2.1x50mm, Mobile Phase A: 5:95:0.1 (v:v:v) Acetonitrile:Water:Formic Acid, Mobile Phase B: 50:50:0.1 (v:v:v) Methanol:Acetonitrile:Formic Acid. MS/MS analyses were performed on an API-6500 (Absciex MA, USA) in positive mode using an electrospray source at 550°C. The internal standard was d4-AEA monitored at 352.2 and 66.0 m/z transitions and the target analyte, HOSU-53, was monitored at 416.5 and 331.1 m/z transitions. The assay was qualified between 10-5,000 ng/ml HOSU53 to be within ±20% for QCs above the LLOQ in this range and ±25% at the LLOQ. DHO concentration quantification in mouse plasma samples. Plasma samples were obtained following appropriate dosing administration and saved in the -80°C freezer till the time of analysis. Analyses by LC-MS/MS followed sample extraction by protein precipitation and separation by Ultra Performance Liquid Chromatography (UPLC, Waters Corporation, MA, USA) using a Phenomenex Aqua C18 100x4.6mm, 3uM, […], Mobile Phase A: 100:0.1 (v:v) Water:Formic Acid, Mobile Phase B: 100:0.1 (v:v) Methanol:Formic Acid. MS/MS analyses were performed on an API-4000 (Absciex MA, USA) in negative mode using an electrospray source at 550°C. The internal standard was labeled 13C14_L-Dihydroorotic Acid monitored at 161.3 and 117.1 m/z transitions and the target analyte, L-Dihydroorotic Acid (DHO), was monitored at 157.0 and 70.0 m/z transitions. The assay was qualified between 10.0-30,000 ng/ml DHO to be within ±20% for QCs above the LLOQ in this range and ±25% at the LLOQ.

[3] = tested on: MOLM-13 disseminated CDX AML model; test: MOLM-13 CDX synergy with azacitidine / venetoclax; format: in vivo, NCG mice; conditions: HOSU-53 4 mg/kg po qd; event 1 = death, 0 = censored; 4 mg/kg
Experimental: Female 8- to 12-week-old NCG mice were engrafted with 1 × 10^5 cells via tail vein i.v. injection. Four days postengraftment (day 1 of treatment), mice (n = 10/arm) were randomized to receive p.o. qd vehicle (40% HPβCD, n = 10; or 60% Phosal 50 PG, 30% PEG 400, and 10% ethanol, n = 10), 4 mg/kg HOSU-53, 25 mg/kg ven, or i.p. 1.5 mg/kg aza on a 5 days on/16 days off cycle, combinations of double regimens and triple regimens till moribundity or end of study, day 53.
Supplemental Figure S.4. […] Using the FLT3 […]
were enrolled to receive daily oral 4 mg/kg HOSU-53 to compare its monotherapy efficacy with daily oral 25 mg/kg venetoclax (ven) monotherapy or 1.5 mg/kg azacitidine (aza) HMA i.p. for five days every 16 days cycle monotherapy or the combination of aza/ven versus ven/ HOSU-53 versus aza/HOSU-53 versus the triple aza/ven/HOSU-53 regimen.

[4] = tested on: panel of approximately 450 human kinases; test: KINOMEscan profiling; format: binding; conditions: 10 μM
Experimental: Supplemental Figure S.1. HOSU-53 KINOMEscan™ Profiling. Eurofins DiscoverX KINOMEscan®
Profiling was conducted using 10 μM HOSU-53 to investigate the presence of any off-target kinase
(1 picture or pasted object on this page, not shown here)

[5] = MOLM-13 CDX multiple ascending dose study; format: in vivo; conditions: male, mouse, in vivo, po; daily p.o., MOLM-13 CDX NCG mice; read-out: maximum tolerated dose (MTD), daily dose
Text: (§1) Male 8- to 12-week-old NCG mice (NOD-Prkdc^em26Cd52Il2rg^em26Cd22/NjuCrl, Charles River) were engrafted with 1 × 10^5 cells via tail vein i.v. injection. Four days after engraftment (day 1 of treatment), mice (n = 10/arm) were randomized to receive p.o. qd vehicle (40% HPβCD) or ascending doses of oral HOSU-53.

[6] = tested on: MOLM-13 disseminated CDX AML model; test: MOLM-13 CDX multiple ascending dose study; format: in vivo
Text: as §1

[7] = male, C57BL/6, plasma, po, 10 mg/kg p.o. single dose, mouse

T1 sequence (Q02127 31-395): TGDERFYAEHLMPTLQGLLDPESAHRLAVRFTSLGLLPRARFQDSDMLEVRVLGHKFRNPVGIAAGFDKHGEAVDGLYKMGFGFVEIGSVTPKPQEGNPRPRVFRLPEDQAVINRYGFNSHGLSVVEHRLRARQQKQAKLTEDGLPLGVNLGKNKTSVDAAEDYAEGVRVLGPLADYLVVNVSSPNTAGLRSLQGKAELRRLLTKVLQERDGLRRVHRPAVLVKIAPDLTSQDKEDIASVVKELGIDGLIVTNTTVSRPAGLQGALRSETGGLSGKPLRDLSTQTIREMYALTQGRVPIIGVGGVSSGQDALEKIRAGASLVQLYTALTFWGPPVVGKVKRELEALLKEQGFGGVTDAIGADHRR
Sequence of CYP 1A2 (P05177 whole entry): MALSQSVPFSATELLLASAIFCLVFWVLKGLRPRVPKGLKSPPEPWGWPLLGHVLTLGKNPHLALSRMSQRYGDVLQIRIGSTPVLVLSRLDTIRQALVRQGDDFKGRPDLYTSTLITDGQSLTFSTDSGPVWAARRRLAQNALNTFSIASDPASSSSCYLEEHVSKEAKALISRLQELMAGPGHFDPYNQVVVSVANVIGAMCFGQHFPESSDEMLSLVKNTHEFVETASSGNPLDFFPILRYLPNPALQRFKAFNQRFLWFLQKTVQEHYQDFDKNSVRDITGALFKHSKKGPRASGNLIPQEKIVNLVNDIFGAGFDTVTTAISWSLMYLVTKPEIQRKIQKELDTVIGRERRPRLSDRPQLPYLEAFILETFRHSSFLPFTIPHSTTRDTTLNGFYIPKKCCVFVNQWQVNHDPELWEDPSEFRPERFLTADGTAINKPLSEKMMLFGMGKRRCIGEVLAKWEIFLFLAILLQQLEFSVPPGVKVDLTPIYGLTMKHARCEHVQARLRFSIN

## CCCCOc1cccc(-c2ccc(-c3cc(C(=O)O)c4cc(F)ccc4n3)cc2)c1 [HOSU-53]
CYP 1A2
  IC50: 19600 nM
[1]; cell-free multi-species assay, n=1, read-out: DHODH IC50 Human
  IC50: 0.69 nM
[1]; cell-free, HOSU-53, BAY, BRQ averaged from 6, 10, 4 replicates, read-out: hDHODH IC50
  IC50: 0.95 nM
[2]; 10 mpk PO, 0.25 h postdose, per mouse
  HOSU-53 plasma concentration: 130.695 µM and 175.464 µM
[2]; 10 mpk PO, 0.5 h postdose, per mouse
  HOSU-53 plasma concentration: 155.968 µM and 199.774 µM
[2]; 10 mpk PO, 1 h postdose, per mouse
  HOSU-53 plasma concentration: 185.332 µM and 227.213 µM
[2]; 10 mpk PO, 2 h postdose, per mouse
  HOSU-53 plasma concentration: 171.131 µM and 199.774 µM
[2]; 10 mpk PO, 4 h postdose, per mouse
  HOSU-53 plasma concentration: 168.002 µM and 190.146 µM
[2]; 10 mpk PO, 8 h postdose, per mouse
  HOSU-53 plasma concentration: 182.925 µM and 197.848 µM
[2]; 10 mpk PO, 24 h postdose, per mouse
  HOSU-53 plasma concentration: 152.839 µM and 120.105 µM
[2]; 10 mpk PO, 48 h postdose, per mouse
  HOSU-53 plasma concentration: 81.835 µM and 67.6342 µM
[2]; 10 mpk PO, 72 h postdose, per mouse
  HOSU-53 plasma concentration: 47.1755 µM and 36.5851 µM
[2]; male, C57BL/6, mouse, plasma, oral, 10 mg/kg, 10 mpk PO, 0.25 h postdose, per mouse
  concentration at 0.25 h: 114 µM
[2]; male, C57BL/6, mouse, plasma, oral, 10 mg/kg, 10 mpk PO, 0.5 h postdose, per mouse
  concentration at 0.5 h: 155 µM
[2]; male, C57BL/6, mouse, plasma, oral, 10 mg/kg, 10 mpk PO, 1 h postdose, per mouse
  concentration at 1 h: 209 µM
[2]; male, C57BL/6, mouse, plasma, oral, 10 mg/kg, 10 mpk PO, 2 h postdose, per mouse
  concentration at 2 h: 215 µM
[2]; male, C57BL/6, mouse, plasma, oral, 10 mg/kg, 10 mpk PO, 4 h postdose, per mouse
  concentration at 4 h: 218 µM
[2]; male, C57BL/6, mouse, plasma, oral, 10 mg/kg, 10 mpk PO, 8 h postdose, per mouse
  concentration at 8 h: 175 µM
[2]; male, C57BL/6, mouse, plasma, oral, 10 mg/kg, 10 mpk PO, 24 h postdose, per mouse
  concentration at 24 h: 130 µM
[2]; male, C57BL/6, mouse, plasma, oral, 10 mg/kg, 10 mpk PO, 48 h postdose, per mouse
  concentration at 48 h: 75.1 µM
[2]; male, C57BL/6, mouse, plasma, oral, 10 mg/kg, 10 mpk PO, 72 h postdose, per mouse
  concentration at 72 h: 43.8 µM
[2]; male, C57BL/6, plasma, oral, p.o. 10 mg/kg vs i.v. 3 mg/kg, mouse, read-out: Bioavailability (F)
  bioavailability: 85%
[2]; [7]
  Cmax: 210 µM
  half-life: 29 h
[2]; male, C57BL/6, plasma, po, 10 mg/kg p.o. single dose, mouse, read-out: Plasma AUC0–72h
  AUC(0-t): 7960 µM·h
[3]
  Days of treatment (survival, per animal): 42 days and 40 days and 37 days and 41 days
[4]
  alternative-target activity against kinase panel: lack of alternative-target activity
[5]
  MTD: 10 to 20 mg/kg
[6]; 1 mg/kg daily p.o., P < 0.05
  survival advantage vs vehicle: modest yet significant survival advantage
[6]; 10 mg/kg daily p.o.
  tolerability: well tolerated
[6]; 30 mg/kg daily p.o., after 13 days of treatment
  tolerability: dose-limiting weight loss
[6]; 100 mg/kg daily p.o.
  tolerability: toxic
[6]; 0.1 mpk qd p.o.
  Survival, day at event (per animal): 18 days and 17 days and 16 days
[6]; 1 mpk qd p.o.
  Survival, day at event (per animal): 22 days and 25 days and 21 days and 23 days
[6]; 10 mpk qd p.o.
  Survival, day at event (per animal): 63 days and 62 days and 48 days and 58 days and 61 days and 32 days and 57 days
[6]; 30 mpk qdx13, holiday, 20 mpk qd start day 18, flag 0 = censored
  Survival, day at event (per animal): 63 days and 15 days and 65 days and 14 days and 71 days and 67 days and ≥ 74 days
[6]; 100 mpk qdx6
  Survival, day at event (per animal): 10 days and 9 days
